Measured values reported in the supplement of paper PMC10307832.

These cell lines were tested with Cc1ccc2nc(NCCN)c3ncc(C)n3c2c1 + N=C(N)NC(=N)NCCc1ccccc1 [Phenformin] (partner 250 µM) (assay: relative viability (nuclei count vs DMSO), 5 days (fraction); higher = more cells survive). Settings: first compound 0.04 µM.
Summary of the method: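 Relative viability was taken as the ratio of nuclei in treated wells to nuclei in vehicle wells. Lung cancer cell lines in 1536-well plates received compounds by pin tool one day after seeding, either one drug alone or a fixed anchor-drug dose plus five library-drug doses (not always all listed) in √10 steps. Nuclei were counted on 4× images after 5 days of treatment, and values are medians of duplicate plates.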
Cell Line NCI-H1993 has a relative viability of 0.506.
SW 1573 was tested, and the relative viability was 0.371.
NCI-H838 gave a relative viability of 0.655.
Cell Line LCLC-103H has a relative viability of 0.342.
NCI-H520 showed a relative viability of 0.633.
NCI-H2126 was tested, and the relative viability was 0.528.
EMC-BAC-2 showed a relative viability of 0.518.
Work on NCI-H2085 yielded a relative viability of 0.817.
With HCC-366 the relative viability was 0.588.
Cell Line NCI-H1666 has a relative viability of 0.574.
In the case of NCI-H596, the relative viability is reported as 0.695.
For LK-2, the relative viability was 0.358.
In the case of NCI-H2087, the relative viability is reported as 0.464.
With NCI-H358 the relative viability was 0.391.
NCI-H2170 was tested, and the relative viability was 0.402.
In the case of H3255, the relative viability is reported as 0.396.
For COR-L23, the relative viability was 0.464.
Work on COR-L 105 yielded a relative viability of 0.647.
Work on LOU-NH91 yielded a relative viability of 0.729.
ChaGo-K-1 showed a relative viability of 0.534.
With NCI-H1793 the relative viability was 0.435.
For NCI-H2405, the relative viability was 0.417.
In the case of HOP-62, the relative viability is reported as 0.676.
HCC-44 gave a relative viability of 0.186.
A549 was tested, and the relative viability was 0.209.
In the case of SK-MES-1, the relative viability is reported as 0.688.
Work on LU99A yielded a relative viability of 0.797.
BEN was tested, and the relative viability was 0.288.
Cell Line NCI-H1623 has a relative viability of 0.586.
NCI-H1563 showed a relative viability of 0.652.

Same assay, conditions: first compound 0.1265 µM
NCI-H522 showed a relative viability of 0.708.
NCI-H2342 showed a relative viability of 0.816.
NCI-H1650 gave a relative viability of 0.488.
Cell Line NCI-H1993 has a relative viability of 0.514.
SW 1573 was tested, and the relative viability was 0.368.
NCI-H838 showed a relative viability of 0.602.
Work on LCLC-103H yielded a relative viability of 0.349.
With NCI-H520 the relative viability was 0.573.
In the case of NCI-H2126, the relative viability is reported as 0.544.
EMC-BAC-2 showed a relative viability of 0.562.
Work on NCI-H2085 yielded a relative viability of 0.762.
HCC-366 gave a relative viability of 0.609.
Work on NCI-H1666 yielded a relative viability of 0.573.
NCI-H596 was tested, and the relative viability was 0.787.
LK-2 gave a relative viability of 0.559.
Work on NCI-H2087 yielded a relative viability of 0.491.
In the case of NCI-H358, the relative viability is reported as 0.313.
Cell Line NCI-H2170 has a relative viability of 0.408.
For H3255, the relative viability was 0.343.
COR-L23 showed a relative viability of 0.448.
COR-L 105 was tested, and the relative viability was 0.555.
With LOU-NH91 the relative viability was 0.693.
ChaGo-K-1 showed a relative viability of 0.544.
Cell Line NCI-H1793 has a relative viability of 0.422.
NCI-H2405 showed a relative viability of 0.385.
HOP-62 showed a relative viability of 0.643.
HCC-44 was tested, and the relative viability was 0.247.
For A549, the relative viability was 0.199.
SK-MES-1 was tested, and the relative viability was 0.624.
Cell Line LU99A has a relative viability of 0.78.
BEN was tested, and the relative viability was 0.265.
With NCI-H1623 the relative viability was 0.618.
NCI-H1563 was tested, and the relative viability was 0.684.

Same assay, conditions: first compound 0.4 µM
With NCI-H522 the relative viability was 0.622.
With NCI-H2342 the relative viability was 0.636.
NCI-H727 showed a relative viability of 0.527.
In the case of NCI-H1650, the relative viability is reported as 0.455.
Cell Line NCI-H1993 has a relative viability of 0.591.
SW 1573 showed a relative viability of 0.395.
NCI-H838 showed a relative viability of 0.587.
LCLC-103H gave a relative viability of 0.332.
In the case of NCI-H520, the relative viability is reported as 0.445.
NCI-H2126 gave a relative viability of 0.516.
EMC-BAC-2 was tested, and the relative viability was 0.499.
NCI-H2085 gave a relative viability of 0.711.
Cell Line HCC-366 has a relative viability of 0.638.
Cell Line NCI-H1666 has a relative viability of 0.521.
NCI-H596 was tested, and the relative viability was 0.644.
In the case of LK-2, the relative viability is reported as 0.307.
Work on NCI-H2087 yielded a relative viability of 0.423.
NCI-H358 showed a relative viability of 0.323.
NCI-H2170 was tested, and the relative viability was 0.435.
H3255 was tested, and the relative viability was 0.396.
COR-L23 was tested, and the relative viability was 0.45.
For COR-L 105, the relative viability was 0.502.
LOU-NH91 showed a relative viability of 0.756.
For ChaGo-K-1, the relative viability was 0.485.
NCI-H1793 showed a relative viability of 0.272.
For NCI-H2405, the relative viability was 0.451.
Work on HOP-62 yielded a relative viability of 0.575.
Work on HCC-44 yielded a relative viability of 0.157.
For A549, the relative viability was 0.166.
With SK-MES-1 the relative viability was 0.69.
In the case of LU99A, the relative viability is reported as 0.673.
BEN was tested, and the relative viability was 0.293.
Work on NCI-H1623 yielded a relative viability of 0.657.
In the case of NCI-H1563, the relative viability is reported as 0.662.

Same assay, conditions: first compound 1.265 µM
Cell Line NCI-H522 has a relative viability of 0.689.
Cell Line NCI-H2342 has a relative viability of 0.581.
Cell Line NCI-H727 has a relative viability of 0.555.
NCI-H1650 was tested, and the relative viability was 0.414.
In the case of NCI-H1993, the relative viability is reported as 0.552.
SW 1573 showed a relative viability of 0.424.
For NCI-H838, the relative viability was 0.543.
Cell Line LCLC-103H has a relative viability of 0.365.
For NCI-H520, the relative viability was 0.517.
In the case of NCI-H2126, the relative viability is reported as 0.535.
EMC-BAC-2 was tested, and the relative viability was 0.536.
NCI-H2085 showed a relative viability of 0.722.
HCC-366 showed a relative viability of 0.606.
NCI-H1666 was tested, and the relative viability was 0.495.
NCI-H596 gave a relative viability of 0.614.
With LK-2 the relative viability was 0.325.
With NCI-H2087 the relative viability was 0.482.
Work on NCI-H358 yielded a relative viability of 0.359.
With NCI-H2170 the relative viability was 0.424.
H3255 gave a relative viability of 0.355.
In the case of COR-L23, the relative viability is reported as 0.468.
In the case of COR-L 105, the relative viability is reported as 0.487.
LOU-NH91 showed a relative viability of 0.654.
ChaGo-K-1 gave a relative viability of 0.412.
For NCI-H1793, the relative viability was 0.324.
Work on NCI-H2405 yielded a relative viability of 0.371.
Work on HOP-62 yielded a relative viability of 0.657.
Work on HCC-44 yielded a relative viability of 0.184.
In the case of A549, the relative viability is reported as 0.111.
SK-MES-1 gave a relative viability of 0.65.
LU99A gave a relative viability of 0.892.
In the case of BEN, the relative viability is reported as 0.247.
With NCI-H1623 the relative viability was 0.684.
NCI-H1563 showed a relative viability of 0.65.

Same assay, conditions: first compound 4 µM
NCI-H522 gave a relative viability of 0.543.
NCI-H2342 showed a relative viability of 0.559.
With NCI-H727 the relative viability was 0.64.
For NCI-H1650, the relative viability was 0.464.
NCI-H1993 was tested, and the relative viability was 0.495.
SW 1573 showed a relative viability of 0.231.
In the case of NCI-H838, the relative viability is reported as 0.568.
LCLC-103H showed a relative viability of 0.348.
Cell Line NCI-H520 has a relative viability of 0.478.
Work on NCI-H2126 yielded a relative viability of 0.506.
EMC-BAC-2 showed a relative viability of 0.54.
In the case of NCI-H2085, the relative viability is reported as 0.744.
HCC-366 was tested, and the relative viability was 0.537.
For NCI-H1666, the relative viability was 0.535.
Cell Line NCI-H596 has a relative viability of 0.826.
In the case of LK-2, the relative viability is reported as 0.415.
NCI-H2087 was tested, and the relative viability was 0.477.
NCI-H358 was tested, and the relative viability was 0.402.
For NCI-H2170, the relative viability was 0.446.
H3255 was tested, and the relative viability was 0.382.
Cell Line COR-L23 has a relative viability of 0.37.
COR-L 105 was tested, and the relative viability was 0.425.
LOU-NH91 gave a relative viability of 0.664.
ChaGo-K-1 showed a relative viability of 0.435.
In the case of NCI-H1793, the relative viability is reported as 0.32.
For NCI-H2405, the relative viability was 0.375.
HOP-62 gave a relative viability of 0.653.
Cell Line HCC-44 has a relative viability of 0.146.
For A549, the relative viability was 0.118.
In the case of SK-MES-1, the relative viability is reported as 0.605.
For LU99A, the relative viability was 0.798.
Work on BEN yielded a relative viability of 0.296.
For NCI-H1623, the relative viability was 0.567.
Cell Line NCI-H1563 has a relative viability of 0.654.
